The target in experiment [1] is T1, Leukotriene B4 receptor 1 (Homo sapiens, UniProt Q15722). In words: Binding affinity against LTB4 receptors in human PMNs.
For experiment [2], the system named is Mus musculus. In words: Effective dose for neutrophil infiltration after administration of 1 mg of arachidonic acid in mouse ear. The class given is functional.
Experiment [3] deals with Mus musculus. In words: Effective dose for edematous response after administration of 1 mg of arachidonic acid in mouse ear. The class given is functional.
In experiment [4] the target is T1, Leukotriene B4 receptor 1. The experiment can be described thus: Inhibitory concentration against LTB4 receptors in human PMNs.
The species named for experiment [5] is Mus musculus. In words: Inhibition of LTB4-induced PMN infiltration at 250 ng/mL in mouse. The experiment is classed as functional.
The species named for another experiment is Homo sapiens. In words: Inhibitory concentration against LTB4 induced degranulation in human PMNs. The experiment is classed as functional.

Each structure is given as a SMILES string.

T1 sequence (Q15722 whole entry): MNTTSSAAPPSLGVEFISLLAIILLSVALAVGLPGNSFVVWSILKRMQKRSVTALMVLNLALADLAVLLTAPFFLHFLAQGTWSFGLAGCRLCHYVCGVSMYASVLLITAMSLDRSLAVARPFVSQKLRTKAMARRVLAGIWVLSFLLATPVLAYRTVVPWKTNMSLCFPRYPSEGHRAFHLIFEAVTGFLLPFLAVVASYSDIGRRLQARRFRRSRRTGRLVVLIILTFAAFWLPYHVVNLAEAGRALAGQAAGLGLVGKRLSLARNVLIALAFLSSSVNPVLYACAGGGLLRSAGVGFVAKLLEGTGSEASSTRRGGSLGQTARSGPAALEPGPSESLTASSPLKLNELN

In experiment [1], `CCCCCCCCCCOc1ccc(CC(O)c2cccc(C(=O)O)c2)nc1/C=C/C(=O)O` (configuration not stated) displayed an inhibition constant (Ki) of 0.28 µM.

`COc1ccc(CCCCCCCCOc2ccc(CSCc3cccc(C(=O)O)c3)nc2/C=C/C(=O)O)cc1`: the ED50 in the experiment on Mus musculus [2] is 0.39 mg ear-1; in the experiment with Mus musculus [3], 0.58 mg ear-1; in the experiment filed under Mus musculus [5], 7.1 mg/kg. Also, the results for the half-maximal inhibitory concentration (IC50) (in experiment [4]; in the experiment filed under Homo sapiens) were 0.131 µM and 0.268 µM, respectively. In experiment [1], this compound returned a Ki of 0.0071 µM.

The values are drawn from ChEMBL document CHEMBL1127025, “(E)-3-[[[[6-(2-carboxyethenyl)-5-[[8-(4- methoxyphenyl)octyl]oxy]-2-pyridinyl]-methyl]thio]methyl]benzoic acid: a novel high-affinity leukotriene B4 receptor antagonist” (J Med Chem, 1993).
